Test results from PMC8449414, “Rational design of ASCT2 inhibitors using an integrated experimental-computational approach” (Proceedings of the National Academy of Sciences of the …, 2021).
Entries after “also recorded” stand apart in the source; their conditions may differ.

Tests used:
rEAAT3 = target: T1, rEAAT3 (Rattus norvegicus, UniProt P51907); assay: Electrophysiology: SLC1 specificity, anion current in transfected HEK293 cells; assay type: cell-based; details: 0 mV, 10 mM glutamate and 130 mM NaSCN internal, No current = no outward current up to highest concentration tested (§ 20-50, || 100-400, # 1500-2500 µM); for Ki: read-out: Binding affinity Ki
T1 construct: expressed in transfected cells; host or cells: HEK293 (ATCC CRL-11268), transient transfection
T1 sequence (P51907 1-523): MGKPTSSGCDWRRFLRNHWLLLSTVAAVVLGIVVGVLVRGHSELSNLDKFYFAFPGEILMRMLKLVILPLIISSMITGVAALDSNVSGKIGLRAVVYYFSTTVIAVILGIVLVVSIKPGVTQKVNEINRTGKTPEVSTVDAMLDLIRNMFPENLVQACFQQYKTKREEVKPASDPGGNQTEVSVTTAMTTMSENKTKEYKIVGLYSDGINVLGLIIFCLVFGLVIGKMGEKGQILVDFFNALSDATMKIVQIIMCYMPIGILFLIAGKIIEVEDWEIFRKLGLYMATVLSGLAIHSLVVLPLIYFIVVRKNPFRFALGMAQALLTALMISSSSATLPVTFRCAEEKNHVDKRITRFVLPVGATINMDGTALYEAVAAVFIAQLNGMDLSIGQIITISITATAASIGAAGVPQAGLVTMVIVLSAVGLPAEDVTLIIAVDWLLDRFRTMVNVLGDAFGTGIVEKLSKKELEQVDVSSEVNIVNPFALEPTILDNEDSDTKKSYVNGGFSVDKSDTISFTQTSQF
Procedure: (§1) We also tested the specificity of Lc-BPE for ASCT2 over other SLC1 family members (ASCT1, EAAT1-3, and EAAT5).
(§2) Fig. S3. SLC-1 specificity of Lc-BPE. (A) Electrophysiological current responses to the application of 100 µM glutamate (red trace) or varying concentrations of Lc-BPE (black, blue and red traces) to rEAAT1-expressing cells HEK293 cells. (B-C) Dose response curves obtained from currents recorded a fter application of Lc-BPE extracellularly to cells transiently expressing hASCT2, rASCT2, hASCT1 (panel B) and rEAAT1, rEAAT2, rEAAT3 and hEAAT5 (panel C) respectively. For hASCT2, rASCT2 and hASCT1, intracellular pipette solution contained 10 mM alanine and 130 mM NaSCN. For rEAAT1, rEAAT2, rEAAT3 and hEAAT5, intracellular solution contained 10 mM glutamate and 130 mM NaSCN. Extracellular solution was the same for all the experiments (140 mM NaCl). The voltage was 0 mV. […]
(§3) Cell culture and transfection
(§4) Human embryonic kidney 293 (HEK293, ATCC CRL -11268) cells were cultured in DMEM media supplemented with 10% (v/v) fetal bovine serum (FBS), 2 mM glutamine, 1% penicillin streptomycin solution, 1 mM sodium pyruvate and non -essential amino acids. Cells were maintained at 370C in a fully humidified atmosphere containing 5% CO2. rASCT2, hASCT2, hASCT1, EAAT1, EAAT2, EAAT3, EAAT5 and YFP complementary DNAs were each used to transiently transfect HEK293 using POLYPLUS Jet-prime transfection reagent. Cells were analyzed using electrophysiological techniques 24-40 hours after transfection.
(§5) Electrophysiological techniques
(§6) Electrophysiological experiments were performed as described previously 1,2. Stock solutions of inhibitor was prepared in dimethyl sulfoxide (DMSO) up to 100 mM.
(§7) Dilutions to working concentrations were made using external buffer. The highest […]
(§8) cells. For rASCT2, hASCT2 and hASCT1, external buffer contained 140 mM NaCl, 2 mM MgCl2, 2 mM CaCl2, and 10 mM HEPES, pH 7.40 while internal pipette solution comprised of 130 mM NaSCN, 2 mM MgCl2, 10 mM EGTA, 10 mM HEPES and 10mM alanine, pH 7.40. For specificity experiments with EAAT1, EAAT2, EAAC1 and EAAT5, internal solution contained 10 mM glutamate instead of alanine. Compounds were applied to HEK293 cells expressing DNA of interest suspended from a current recording electrode in whole cell configuration44 through a rapid solution exchange device described previously45. Cells are immersed in external buffer bath used to dissolve the inhibitors. The open pipette resistance was between 3 and 6 MΩ. Series resistance was not compensated in these experiments due to relatively small currents. Current s traces were recorded using an Adams and List EPC7 amplifier and digitized using a Molecular Devices Digidata A/D converter.
(§9) Data analysis was performed as described previously 46. Linear and nonlinear curve fitting of the experimental data were analyzed using MicroCal Origin software. Linear plots were fitted using the general equation (y = a + bx) obtaining adjusted R 2 and Pearson’s r values. Nonlinear dose–response relationships were fitted with a Michaelis – Menten-like equation to obtain apparent Ki values in the absence of substrate. For competition studies, equation I = I1 + I2 [Inh]/(Ki + [Inh]) was used for fitting, where I1 is the alanine induced current without the inhibitor, and I2 is the maximum current in the presence of saturating inhibitor concentration, [Inh]max 1,2. At least five experiments were performed for each compound. Unless stated otherwise, the error bars in all our graphs represent mean ± SD .
(§10) ASCT2 expression and purification
(§11) Human ASCT2 (hASCT2) was produced in Pichia pastoris X-33 strain (Invitrogen) in fermentor26 and purified using DDM and CHS (Anatrace) and 1 mM L-glutamine (Merck) to maintain protein stability 27. Membranes representing ~1.5 g cells were solubilized in buffer A (25 mM Tris-HCl, pH 7.4, 300 mM NaCl, 10% (vol/vol) glycerol, 1 mM L - glutamine, 1% DDM and 0.1% CHS) for 1 h at 4 °C; ultracentrifuged (30 min, 442,907 × […]

hASCT1 = target: T2, hASCT1 (Homo sapiens, UniProt P43007); assay: as above; assay type: cell-based; details: for Ki: read-out: Binding affinity Ki
T2 construct: expressed in transfected cells; host or cells: HEK293 (ATCC CRL-11268), transient transfection
T2 sequence (P43007 1-532): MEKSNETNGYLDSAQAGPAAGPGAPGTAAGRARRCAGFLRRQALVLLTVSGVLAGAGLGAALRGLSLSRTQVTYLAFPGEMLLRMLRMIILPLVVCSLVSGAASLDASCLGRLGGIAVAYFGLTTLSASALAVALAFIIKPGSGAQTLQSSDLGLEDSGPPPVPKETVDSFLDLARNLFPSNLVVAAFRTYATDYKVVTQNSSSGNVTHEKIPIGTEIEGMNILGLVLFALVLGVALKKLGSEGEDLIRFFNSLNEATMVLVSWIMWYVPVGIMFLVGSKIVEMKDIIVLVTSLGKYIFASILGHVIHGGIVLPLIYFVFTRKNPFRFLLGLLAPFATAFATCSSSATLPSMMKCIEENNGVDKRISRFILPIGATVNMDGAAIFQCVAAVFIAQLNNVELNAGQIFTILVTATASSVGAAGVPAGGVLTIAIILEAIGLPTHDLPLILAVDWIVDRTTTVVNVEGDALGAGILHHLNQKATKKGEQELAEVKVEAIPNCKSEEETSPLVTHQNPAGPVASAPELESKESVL
Procedure: as §1, §2, §3, §4, §5, §6, §7, §8, §9, §10, §11

[1] = HEK293 cells, 0 mV, 10 mM alanine and 130 mM NaSCN internal, No current = no outward current up to highest concentration tested (§ 20-50, || 100-400, # 1500-2500 µM)

SMILES | Binding affinity Ki (rEAAT3) | Ki (rEAAT3) [µM] | Ki (hASCT1; [1]) [µM] | apparent affinity of hASCT1 lower than that of rASCT2 (hASCT1; hASCT1 versus rASCT2) [fold] | Binding affinity Ki (hASCT1; [1])
N[C@@H](COC(=O)c1ccc(NC(=O)c2ccccc2)cc1)C(=O)O [ERA-21] | – | 12.3 ± 1.86 | 11.6 ± 1.75 | – | –
N[C@@H](COC(=O)c1cccnc1)C(=O)O [ERA-28] | No current | – | 549 ± 306 | – | –
O=C(O[C@@H]1CN[C@H](C(=O)O)C1)c1ccc(-c2ccccc2)cc1 [Lc-BPE, L-cis hydroxyproline biphenyl ester] | – | – | – | ~3.8 | –
O=C(O[C@@H]1CN[C@H](C(=O)O)C1)c1ccc(C(O)c2ccccc2)cc1 (stereo partly shown) [ERA-9] | No current; also recorded: No inhibitory activity was detected | – | 43 ± 13.4 | – | –
O=C(O[C@@H]1CN[C@H](C(=O)O)C1)c1ccc(-c2ccc(F)cc2)cc1 [ERA-4] | – | 0.69 ± 0.07 | 0.9 ± 0.08 | – | –
N[C@@H](COC(=O)c1ccccc1)C(=O)O [ERA-25] | – | 656 ± 115 | 170 ± 26.7 | – | –
O=C(O[C@@H]1CN[C@H](C(=O)O)C1)c1ccccc1-c1ccccc1 [ERA-3] | No current | – | – | – | No current

The next lines start with results.

Binding affinity Ki (rEAAT3) | Ki (rEAAT3) [µM] | Ki (hASCT1; [1]) [µM] | SMILES | apparent affinity of hASCT1 lower than that of rASCT2 (hASCT1; hASCT1 versus rASCT2) [fold] | Binding affinity Ki (hASCT1; [1])
No current | – | – | O=C(O[C@@H]1CN[C@H](C(=O)O)C1)C(c1ccccc1)c1ccccc1 [ERA-29] | – | –
No current | – | > 100 | O=C(O[C@@H]1CN[C@H](C(=O)O)C1)c1ccc(OCc2ccccc2)cc1 [ERA-31] | – | –
No current | – | 8.51 ± 3.87 | O=C(Nc1ccc(C(=O)O[C@@H]2CN[C@H](C(=O)O)C2)cc1)c1ccc(C(F)(F)F)cc1 [ERA-11] | – | –
No current | – | – | O=C(O[C@H]1CN[C@H](C(=O)O)C1)c1ccc(C(=O)c2ccccc2)cc1 [ERA-35] | – | –
– | 1.25 ± 0.24 | 0.44 ± 0.14 | O=C(O[C@@H]1CN[C@H](C(=O)O)C1)c1ccc(-c2ccc(C(F)(F)F)cc2)cc1 [ERA-5] | – | –
– | 10.3 ± 2.15 | 5.71 ± 0.91 | O=C(O[C@@H]1CN[C@H](C(=O)O)C1)c1ccc(Oc2ccccc2)cc1 [ERA-16] | – | –
– | 1.99 ± 0.36 | 1.33 ± 0.3 | Cc1ccccc1-c1ccc(C(=O)O[C@@H]2CN[C@H](C(=O)O)C2)cc1 [ERA-6] | – | –
